Laboratory results taken from PubChem BioAssay (NCI).
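How tested: cells in 96-well plates exposed to compound for 48 hours at five concentrations. Here, GI50 denotes the concentration required for 50% inhibition of growth. At the TGI there is no net growth.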

Experiments:
Experiment in all cases: NCI tumour cell line growth inhibition, 48 h
MOLT-4 leukemia = tested on: MOLT-4 leukemia
A498 renal = tested on: A498 renal
RPMI-8226 leukemia = tested on: RPMI-8226 leukemia
OVCAR-5 ovarian = tested on: OVCAR-5 ovarian
SK-MEL-5 melanoma = tested on: SK-MEL-5 melanoma
HT29 colon = tested on: HT29 colon
SF-268 CNS = tested on: SF-268 CNS
UO-31 renal = tested on: UO-31 renal
PC-3 prostate = tested on: PC-3 prostate
HS 578T breast = tested on: HS 578T breast

Structure (SMILES)	GI50 (MOLT-4 leukemia) [µM]	TGI (MOLT-4 leukemia) [µM]	GI50 (A498 renal) [µM]	TGI (A498 renal) [µM]	GI50 (RPMI-8226 leukemia) [µM]	TGI (RPMI-8226 leukemia) [µM]	GI50 (OVCAR-5 ovarian) [µM]	TGI (OVCAR-5 ovarian) [µM]	GI50 (SK-MEL-5 melanoma) [µM]	TGI (SK-MEL-5 melanoma) [µM]	GI50 (HT29 colon) [µM]	TGI (HT29 colon) [µM]	GI50 (SF-268 CNS) [µM]	TGI (SF-268 CNS) [µM]	GI50 (UO-31 renal) [µM]	TGI (UO-31 renal) [µM]	GI50 (PC-3 prostate) [µM]	TGI (PC-3 prostate) [µM]	GI50 (HS 578T breast) [µM]	TGI (HS 578T breast) [µM]
C/C=C/C(=O)[O-].N.N.N.N.N.[Co+3].[O-][Cl+3]([O-])([O-])[O-]	> 100	> 100	> 100	> 100	> 100	> 100	> 100	> 100	> 100	> 100	> 100	> 100	> 100	> 100	> 100	> 100				
CNC(C)Cc1ccc(O)cc1 (centres undefined)		> 100		> 100		> 100		> 100		> 100		> 100		> 100		> 100				
COC(=O)C1=C(c2cc(OC)c(OC)c(OC)c2)O[C@H](c2ccc3c(c2)OCO3)[C@H]1COC(C)=O		74		48.6		> 100		> 100		29.8		95.7				80				
CC(C)=CCC/C(C)=C/[C@H]1OC(=O)CC12C[C@H](O)C=CC2=O (some centres undefined)			1.47	3.09	0.235	0.594	1.14	2.54	1.35	3.17	0.469		0.922	2.65	1.96		0.384	1.42	1.81	5.02
Cc1ccc(C)c2c1CCc1cc3ccccc3nc1-2		> 100		> 100		> 100		> 100		> 100		> 100		> 100		> 100				
O=C(O)Cc1cc(=O)[nH]c2c1C(=O)CCC2		> 100				> 100		> 100		> 100		> 100		> 100		> 100				
CN(C)c1ccc(N=C(C#N)c2nc(N)nc(N3CCN(c4ccccc4)CC3)n2)cc1	> 50	> 50			> 26.8	> 50	> 50	> 50	24.5	> 47.5	21.2	> 50	11.7	34.9	> 18	> 32.5	36.9	> 50		
Cc1cccc(O)c(=O)c1		> 100		> 100		92.6		> 100		> 100		> 100		> 100		> 100				
COC(=O)c1nn(C(=N)c2ccc(Cl)cc2)c2c1CCCCC2		> 100		> 100		> 100		> 100		> 100		> 100		> 100		> 100				
COC(=O)/C(=N/O)C(C(=O)OC)C(=O)C(=O)Nc1c(Cl)cc(C)cc1S(=O)(=O)O (centres undefined)		> 100		> 100		53.3		> 100		> 100		> 100		> 100		> 100				
[N-]=[N+]=Nc1c(Br)c(=O)[nH]c(=O)n1COCCO		> 100						> 100		> 100		> 100		> 100		> 100				
C=C(C)[C@@H]1CC[C@]2(C)[C@H](CC=C3[C@@H]4[C@H](C)[C@@H](C)CC[C@]4(CO)CC[C@]32C)[C@@]1(C)CCCN	1.35	4.07	3.83	11.2			1.76	6.15	0.91	1.65	0.99	2.04	1.22	2.69	0.823	2.24	1.65	7.48	0.994	2.23
CCCCN(CCCC)C(=O)C(=O)CC(=O)/C=C/c1ccccc1		> 100		> 100		> 100		> 100		> 100		> 100		> 100		> 100				
C[C@H]1CCC/C=C/[C@@H]2C[C@H](O)C[C@H]2[C@H](O)[C@@H](SC2OC(CO)C(O)C(O)C2O)CC(=O)O1 (some centres undefined)	> 100	> 100	20.7	63.8	> 100	> 100	48	> 100	16.2	30	23	58.8			47.9	> 100	> 100	> 100		
CC(C)N(Cc1ccccc1)S(=O)(=O)c1n[nH]c(C(C)(C)C)n1				> 100		> 100		> 100		> 100		> 100		> 100		> 100		> 100		> 100
COc1cc2c3c(c1OC)Oc1ccc(cc1)CC1c4c(cc(OC)c(OC)c4Oc4ccc(cc4)CC3N(C)CC2)CCN1C (centres undefined)		63.2		34		70.4		> 100		31.7		35.2		64.5		31.4				
Cc1cc(Cl)ccc1NC(=O)CCCC(=O)C(C(=O)c1ccccc1)c1ccccc1 (centres undefined)		> 100		> 100		> 100		> 100				> 100		> 100						
CC1=NN(C(=O)c2cc(Cl)cc([N+](=O)[O-])c2)C(=O)C1N=Nc1ccccc1C(=O)O (centres undefined)		> 100		> 100		> 100		> 100		> 100		> 100		> 100		> 100				
Cc1ccc(/C=C2\CN(Cc3cn(CCNc4ccnc5cc(Cl)ccc45)nn3)C/C(=C\c3ccc(C)cc3)C2=O)cc1			0.85	2.2	1.82	4.98	1.8	3.54	1.7	3.12	1.91	3.85	2.04	4.2	1.44	2.85	1.75	3.74	1.97	5.53
